Measured values as given in patent publication US20240246968A1, “SMALL MOLECULE INHIBITORS OF KRAS G12C MUTANT” (Merck Sharp & Dohme LLC, priority 2021, published 2024).

How the values were obtained:
[1] = target: biotinylated KRAS G12C protein (GMP-PNP loaded) and GST-tagged Ras binding domain of c-RAF (Homo sapiens, UniProt P01116, C118S/C51S/C80L/G12C); assay: RAS:RAF-RBD binding assay (TR-FRET); type: biochemical; settings: 30-minute incubation with KRAS G12C, then RAF-RBD 60 minute
[2] = system: MIA PaCa-2 cells; assay: Growth inhibition activity on KRAS-G12C mutant cell line (MIA PaCa-2), CellTiter-Glo 3D; type: cell-based, human; settings: Homo sapiens, MIA PaCa-2, 72 h, MIA PaCa-2, 3-day culture with compound
Method in brief: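 Luminescence readout (CellTiter-Glo 3D) after 3 days of compound treatment at 37 °C, 5% CO2, 0.2% final DMSO, gave % growth inhibition versus no-compound wells, from which IC50 (nM) was derived; cells had been plated in 10% FBS RPMI1640 one day before dosing.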

[3] = target: T1, interaction between recombinant K-Ras4B G12C mutant protein and cRAF RAS-binding domain (cRAF-RBD) (Homo sapiens, UniProt P01116, G12C); assay: Inhibitory activity on interaction between KRAS G12C and cRAF (Alpha technology); type: biochemical; settings: GMPPNP-bound KRAS G12C incubated with compound at 25° C. for 1 hour, then cRAF-RBD; Alpha signal
T1 construct: made in house; host or cells: E. coli
Method in brief: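 Alpha readout of cRAF-RBD (aa 50-132) binding to KRAS G12C (aa 1-169) after 1.5 h RT, following 1 h, 25° C compound preincubation with GMPPNP-bound protein (pH 7.5 Tris, 1 mM MgCl2, TCEP, Tween 20). IC50 fitted from titrations, with GDP-bound KRAS as 100% and DMSO as 0% inhibition.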

[4] = target: Gppcp-bound recombinant K-Ras4B G12C mutant protein (amino acids 1-169, C51S/C80L/C118S) (Homo sapiens, UniProt P01116, C118S/C51S/C80L/G12C); assay: KRASG12C binding assay (LC-MS, compound binding rate); settings: test compound final concentration 0.5 μM, 25° C., 1 hour
Method in brief: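 Covalent adduct formation measured by deconvoluted intact-mass LC-MS after 1 h at 25 °C with compound at 0.5 μM final and 50 nM Gppcp-loaded KRAS G12C (residues 1-169, C51S/C80L/C118S). Buffer: TBS, 0.1 mM TCEP, 0.25 mM MgCl2, 50 μM Gppcp. Binding % = one-molecule adduct/(unbound + all adducts), binned A ≥80, B 60–80, C 40–60, D 20–40, E <20.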

Compound	IC50 [1]	IC50 [2]	IC50 [3]	binding rate [4]
COc1c(-c2cccc3c2ccn3C(=O)c2cc(F)c(NC(=O)/C=C/CN[C@H]3CCOC3)c(F)c2)c(C(F)(F)F)cc2c1nc(C)n2C (single isomer, unassigned) [Example 116, mono(2,2,2-trifluoroacetate)]	0.0148 µM			
C/C=C/c1cc(C(=O)c2cc(F)c(NC(=O)/C=C/CN[C@H]3CC[C@H](OC)CC3)c(F)c2)n2cccc(-c3c(C)cc4c(nc(C)n4C)c3Cl)c12 [Example 96, (E)-N-(4-(8-(4-chloro-1,2,6-trimethyl-1H-benzo[d]imidazol-5-yl)-1-((E)-prop-1-en-1-yl)indolizine-3-carbonyl)-2,6-difluorophenyl)-4-(((1r,4r)-4-methoxycyclohexyl)amino)but-2-enamide]		0.13 µM	0.036 µM	A (A binding rate of 80% or more is rated “A”)
CCCc1cc(C(=O)c2cc(F)c(NC(=O)/C=C/CN[C@H]3CC[C@H](OC)CC3)c(F)c2)n2cccc(-c3c(C)cc4c(nc(C)n4C)c3Cl)c12 [Example 97, (E)-N-(4-(8-(4-chloro-1,2,6-trimethyl-1H-benzo[d]imidazol-5-yl)-1-propylindolizine-3-carbonyl)-2,6-difluorophenyl)-4-(((1r,4r)-4-methoxycyclohexyl)amino)but-2-enamide]		0.32 µM	0.044 µM	A (A binding rate of 80% or more is rated “A”)
Cc1cc2c(nc([C@@H](C)O)n2C)c(Cl)c1-c1cccn2c(C(=O)c3cc(F)c(NC(=O)/C=C/CNC(C)(C)C)c(F)c3)ccc12 [Example 98, (R,E)-4-(tert-butylamino)-N-(4-(8-(4-chloro-2-(1-hydroxyethyl)-1,6-dimethyl-1H-benzo[d]imidazol-5-yl)indolizine-3-carbonyl)-2,6-difluorophenyl)but-2-enamide]		0.042 µM	0.041 µM	A (A binding rate of 80% or more is rated “A”)
CCc1nc2c(-c3cc4nc(C)n(C)c4cc3C(F)(F)F)cccn2c1C(=O)c1cc(F)c(NC(=O)/C=C/CN[C@H]2CC[C@H](OC)CC2)c(F)c1 [Example 99, (E)-N-(4-(8-(1,2-dimethyl-6-(trifluoromethyl)-1H-benzo[d]imidazol-5-yl)-2-ethylimidazo[1,2-a]pyridine-3-carbonyl)-2,6-difluorophenyl)-4-(((1r,4r)-4-methoxycyclohexyl)amino)but-2-enamide]		0.17 µM	0.17 µM	A (A binding rate of 80% or more is rated “A”)
CO[C@H]1CC[C@H](NC/C=C/C(=O)Nc2c(F)cc(C(=O)c3cc(-c4cnn(C)c4)c4c(-c5c(C)cc6c(nc(C)n6C)c5Cl)cccn34)cc2F)CC1 [Example 101, (E)-N-(4-(8-(4-chloro-1,2,6-trimethyl-1H-benzo[d]imidazol-5-yl)-1-(1-methyl-1H-pyrazol-4-yl)indolizine-3-carbonyl)-2,6-difluorophenyl)-4-(((1r,4r)-4-methoxycyclohexyl)amino)but-2-enamide]		0.093 µM	0.054 µM	A (A binding rate of 80% or more is rated “A”)
CO[C@H]1CC[C@H](NC/C=C/C(=O)Nc2c(F)cc(C(=O)c3cc(C(=O)N(C)C)c4c(-c5c(C)cc6c(nc(C)n6C)c5Cl)cccn34)cc2F)CC1 [Example 106, 8-(4-chloro-1,2,6-trimethyl-1H-benzo[d]imidazol-5-yl)-3-(3,5-difluoro-4-((E)-4-(((1r,4r)-4-methoxycyclohexyl)amino)but-2-enamido)benzol)-N,N-dimethylindolizine-1-carboxamide]		0.134 µM	0.0311 µM	A (A binding rate of 80% or more is rated “A”)
COCCn1c(C)nc2c(F)c(-c3cccn4c(C(=O)c5cc(F)c(NC(=O)/C=C/CNC6(C)CC6)c(F)c5)ccc34)c(OC)cc21 [Example 113, (E)-N-(2,6-difluoro-4-(8-(4-fluoro-6-methoxy-1-(2-methoxyethyl)-2-methyl-1H-benzo[d]imidazol-5-yl)indolizine-3-carbonyl)phenyl)-4-((1-methylcyclopropyl)amino)but-2-enamide]		0.0559 µM	0.0449 µM	A (A binding rate of 80% or more is rated “A”)
COc1cc2c(c(F)c1-c1cccn3c(C(=O)c4cc(F)c(NC(=O)/C=C/CNC5(C)CC5)c(F)c4)ccc13)c(=O)ncn2C [Example 114]		1.07 µM	0.0189 µM	A (A binding rate of 80% or more is rated “A”)

The next lines start with results.

IC50 [1]	IC50 [2]	IC50 [3]	Compound	binding rate [4]
0.0565 µM			COc1c(-c2cccn3c(C(=O)c4cc(F)c(NC(=O)/C=C/CN[C@H]5CC[C@H](OC)CC5)c(F)c4)ccc23)c(C(F)(F)F)cc2c1cnn2C (single isomer, unassigned) [Example 117, (E)-N-(2,6-difluoro-4-(8-(4-methoxy-1-methyl-6-(trifluoromethyl)-1H-indazol-5-yl)indolizine-3-carbonyl)phenyl)-4-(((1r,4r)-4-methoxycyclohexyl)amino)but-2-enamide]	
	0.096 µM	0.071 µM	C#Cc1cc(C(=O)c2cc(F)c(NC(=O)/C=C/CN[C@H]3CC[C@H](OC)CC3)c(F)c2)n2cccc(-c3c(C)cc4c(nc(C)n4C)c3Cl)c12 [Example 100]	A (A binding rate of 80% or more is rated “A”)
	0.0748 µM	0.032 µM	COCc1cc(C(=O)c2cc(F)c(NC(=O)/C=C/CN[C@H]3CC[C@H](OC)CC3)c(F)c2)n2cccc(-c3c(C)cc4c(nc(C)n4C)c3Cl)c12 [Example 103, (E)-N-(4-(8-(4-chloro-1,2,6-trimethyl-1H-benzo[d]imidazol-5-yl)-1-(methoxymethyl)indolizine-3-carbonyl)-2,6-difluorophenyl)-4-(((1r,4r)-4-methoxycyclohexyl)amino)but-2-enamide]	A (A binding rate of 80% or more is rated “A”)
	0.0904 µM	0.0789 µM	CO[C@H]1CC[C@H](NC/C=C/C(=O)Nc2c(F)cc(C(=O)c3ccc4c(-c5c(C(F)(F)F)cc6c(nc(C)n6C)c5Cl)cccn34)c(F)c2F)CC1 [Example 104, (E)-N-(4-(8(4-chloro-1,2-dimethyl-6-(trifluoromethyl)-1H-benzo[d]imidazol-5-yl)indolizine-3-carbonyl)-2,3,6-trifluorophenyl)-4-(((1r,4r)-4-methoxycyclohexyl)amino)but-2-enamide]	A (A binding rate of 80% or more is rated “A”)
	0.569 µM	0.0376 µM	CO[C@H]1CC[C@H](NC/C=C/C(=O)Nc2c(F)cc(C(=O)c3cc(C(N)=O)c4c(-c5c(C)cc6c(nc(C)n6C)c5Cl)cccn34)cc2F)CC1 [Example 107, 8-(4-chloro-1,2,6-trimethyl-1H-benzo[d]imidazol-5-yl)-3-(3,5-difluoro-4-((E)-4-(((1r,4r)-4-methoxycyclohexyl)amino)but-2-enamido)benzoyl)indolizine-1-carboxamide]	A (A binding rate of 80% or more is rated “A”)
	0.0777 µM	0.0405 µM	CO[C@H]1CC[C@H](NC/C=C/C(=O)Nc2c(F)cc(C(=O)c3cc(CC#N)c4c(-c5c(C)cc6c(nc(C)n6C)c5Cl)cccn34)cc2F)CC1 [Example 108, (E)-N-(4-(8-(4-chloro-1,2,6-trimethyl-1H-benzo[d]imidazol-5-yl)-1-(cyanomethyl)indolizine-3-carbonyl)-2,6-difluorophenyl)-4-(((1r,4r)-4-methoxycyclohexyl)amino)but-2-enamide]	A (A binding rate of 80% or more is rated “A”)
	0.182 µM	0.0807 µM	CO[C@H]1CC[C@H](NC/C=C/C(=O)Nc2c(F)cc(C(=O)c3ccc4c(-c5cc6[nH]c(=O)n(C)c6cc5C(F)(F)F)cccn34)cc2F)CC1 [Example 110, (E)-N-(2,6-difluoro-4-(8(1-methyl-2-oxo-6-(trifluoromethyl)-2,3-dihydro-1H-benzo[d]imidazol-5-yl)indolizine-3-carbonyl)phenyl)-4-(((1r,4r)-4-methoxycyclohexyl)amino)but-2-enamide]	A (A binding rate of 80% or more is rated “A”)
	0.248 µM	0.452 µM	CO[C@H]1CC[C@H](NC/C=C/C(=O)Nc2c(F)cc(C(=O)c3ccc4c(-c5cc6nc(C)n(C)c6cc5C(F)(F)F)nccn34)cc2F)CC1 [Example 115, (E)-N-(4-(1-(1,2-dimethyl-6-(trifluoromethyl)-1H-benzo[d]imidazol-5-yl)pyrrolo[1,2-a]pyrazine-6-carbonyl)-2,6-difluorophenyl)-4-(((1r,4r)-4-methoxycyclohexyl)amino)but-2-enamide]	B (a binding rate of 60% or more and less than 80% is rated “B”)
